# How the values were obtained:
# Format in all cases: biochemical
# [1] = target: T1, GECFINDER-Leu2 (Aneurinibacillus migulanus, UniProt P0C061, A301G/I277L/T278L); assay: Fluorescence dose-response of purified binding-pocket-engineered sensors (0.75 uM) in 100 mM Tris-HCl pH 7.5, room temperature, 1 mM ATP, 2.5 mM MgCl2, excitation 460 or 480 nm, emission 510 nm; logistic five-parameter fit.; settings: n = 3
# T1 construct: gene grsA
# Procedure: (§1) Fig. 4 Engineering ligand specificity of GrsA-PheA for generating […]s. a The selectivity-conferring code of Phe and Leu A domains. b–f Dose–response curve of purified […]s with increasing concentrations of ligands in 100 mM Tris-HCl buffer (pH=7.5). All data shown are means ± S.D. (n = 3 biologically independent samples). g A series of […] reactions was tested to show the […]’s specificity with 20 proteinogenic amino acids. The values on the heatmap represent the ΔF/F0 value normalized to each […]’s maximal ΔF/F0 value ((ΔF/F0)/maximal ΔF/F0). The concentrations of 20 amino acids were 100 μM. The color indicates the average value of three independent biological replicates after 15 min. All data shown are means ± S.D. (n = 3 biologically independent samples). Source data are provided as a Source data file.
# (§2) The study conducted dose–response curve, substrate specificity, and fluorescent spectrum analyses in 100-mM Tris buffer (pH = 7.5), while pH stability experiments were performed in 100-mM Tris buffer at three different pH values (6.5, 7.5, and 8.5) at room temperature. […] protein at a concentration of 0.75 μM, various small molecule concentrations, 1 mM ATP, and 2.5 mM MgCl2 were used in the experiments. Fluorescent signals were detected using a Microplate Reader (Synergy H4, Bio Tek) at an excitation/emission wavelength of 460 nm/510 nm or 480 nm/510 nm. The dose-response curve was determined immediately after the addition of the analyte. The total duration of the measurement was 15 min, with readings taken at one-minute intervals. The dose-response curve was plotted using the fluorescence values obtained after achieving stability in the fluorescence signal. The dose-response curves were fitted using the logistic model LOGISTIC5 available in Origin 2021, which could provide a more adequate fit to asymmetric dose-response data[62],[63]. Excitation spectra were scanned from 300 to 540 nm with a step size of 5 nm, and the emission wavelength was set to 560 nm. Emission spectra were scanned from 470 to 700 nm with a step size of 5 nm, and the excitation wavelength was set to 450 nm. The thermal stability of […] was analyzed using the UNcle multifunctional protein stability analysis system. Measurements were performed in 20 mM MOPS buffer with 2 mM DTT at a sample concentration of 1 mg/mL. Absolute fluorescence quantum yields were measured using an absolute photoluminescence quantum yield spectrometer (FS5, Edinburgh).
# [2] = target: T2, GECFINDER-Leu3 (Aneurinibacillus migulanus, UniProt P0C061, A301G/S447N/T278L); assay: as above; settings: n = 3
# T2 construct: gene grsA
# Procedure: as §1, §2
# [3] = target: T3, GECFINDER-Leu4 (Aneurinibacillus migulanus, UniProt P0C061, A301G/I277L/S447N/T278L); assay: as above; settings: n = 3
# T3 construct: gene grsA
# Procedure: as §1, §2
# [4] = target: GECFINDER-SβF; assay: as above; settings: n = 3
# Procedure: as §1, §2
# [5] = target: T4, GECFINDER-Tyr (Aneurinibacillus migulanus, UniProt P0C061, W239S); assay: as above; settings: n = 3
# T4 construct: gene grsA
# Procedure: as §1, §2
# [6] = Dose–response curve of purified […]s with phenylalanine
# Procedure: Fig. 3 Dose–response curves and fluorescence spectrums of […]s. a, c, e, g, i, k Dose–response curve of purified […]s with increasing concentrations of ligand in 100 mM Tris-HCl buffer (pH=7.5). The normalized ΔF/F0 value increased after ligand binding. All data shown are mean ± S.D. (n = 3 biologically independent samples). b, d, f, h, j, l The fluorescence spectra of […]s changed as the ligand concentration increased. All data shown are mean ± S.D. (n = 3 biologically independent samples). Source data are provided as a Source data file.
# as §1, §2
compound,measurement,setting,value
"N[C@@H](Cc1ccccc1)C(=O)O [Phe, phenylalanine]",EC50,[1],606 ± 407 µM
same,EC50,[2],392 ± 51.8 µM
same,EC50,[3],158 ± 22.6 µM
same,EC50,[4],234 ± 23.7 µM
same,EC50,[5],258 ± 37.3 µM
N[C@@H](Cc1ccccc1)C(=O)O [Phe],"AVE, dose-response Fig. 4 b",[6]; substrate Phe 0.001 μM,0
same,"AVE, dose-response Fig. 4 b",[6]; substrate Phe 0.005 μM,0.04668
same,"AVE, dose-response Fig. 4 b",[6]; substrate Phe 0.01 μM,0.05356
same,"AVE, dose-response Fig. 4 b",[6]; substrate Phe 0.05 μM,0.1413
same,"AVE, dose-response Fig. 4 b",[6]; substrate Phe 0.1 μM,0.2634
same,"AVE, dose-response Fig. 4 b",[6]; substrate Phe 0.5 μM,0.9215
same,"AVE, dose-response Fig. 4 b",[6]; substrate Phe 1 μM,1.384
same,"AVE, dose-response Fig. 4 b",[6]; substrate Phe 5 μM,2.412
same,"AVE, dose-response Fig. 4 b",[6]; substrate Phe 10 μM,2.788
same,"AVE, dose-response Fig. 4 b",[6]; substrate Phe 25 μM,3.108
same,"AVE, dose-response Fig. 4 b",[6]; substrate Phe 50 μM,3.25
same,"AVE, dose-response Fig. 4 b",[6]; substrate Phe 100 μM,3.385
same,"AVE, dose-response Fig. 4 c",[6]; substrate Phe 0.5 μM,0
same,"AVE, dose-response Fig. 4 c",[6]; substrate Phe 1 μM,0.02176
same,"AVE, dose-response Fig. 4 c",[6]; substrate Phe 2 μM,0.04684
same,"AVE, dose-response Fig. 4 c",[6]; substrate Phe 5 μM,0.0476
same,"AVE, dose-response Fig. 4 c",[6]; substrate Phe 10 μM,0.102
same,"AVE, dose-response Fig. 4 c",[6]; substrate Phe 20 μM,0.1609
same,"AVE, dose-response Fig. 4 c",[6]; substrate Phe 50 μM,0.1914
same,"AVE, dose-response Fig. 4 c",[6]; substrate Phe 100 μM,0.2096
same,"AVE, dose-response Fig. 4 c",[6]; substrate Phe 200 μM,0.2332
same,"AVE, dose-response Fig. 4 c",[6]; substrate Phe 500 μM,0.2962
same,"AVE, dose-response Fig. 4 c",[6]; substrate Phe 750 μM,0.3509
same,"AVE, dose-response Fig. 4 c",[6]; substrate Phe 1000 μM,0.2649
same,"AVE, dose-response Fig. 4 e",[6]; substrate Phe 0.1 μM,-6.4763e-17
same,"AVE, dose-response Fig. 4 e",[6]; substrate Phe 0.2 μM,0.02607
same,"AVE, dose-response Fig. 4 e",[6]; substrate Phe 1 μM,0.02065
same,"AVE, dose-response Fig. 4 e",[6]; substrate Phe 2 μM,0.01654
same,"AVE, dose-response Fig. 4 e",[6]; substrate Phe 10 μM,0.06065
same,"AVE, dose-response Fig. 4 e",[6]; substrate Phe 20 μM,0.08275
same,"AVE, dose-response Fig. 4 e",[6]; substrate Phe 100 μM,0.1347
same,"AVE, dose-response Fig. 4 e",[6]; substrate Phe 200 μM,0.2309
same,"AVE, dose-response Fig. 4 e",[6]; substrate Phe 500 μM,0.3796
same,"AVE, dose-response Fig. 4 e",[6]; substrate Phe 1000 μM,0.4613
same,"AVE, dose-response Fig. 4 e",[6]; substrate Phe 1500 μM,0.4963
same,"AVE, dose-response Fig. 4 e",[6]; substrate Phe 2000 μM,0.5161
same,"AVE, dose-response Fig. 4 f",[6]; substrate Phe 0.0001 μM,-0.000122
same,"AVE, dose-response Fig. 4 f",[6]; substrate Phe 0.001 μM,0.002395
same,"AVE, dose-response Fig. 4 f",[6]; substrate Phe 0.01 μM,0.009697
same,"AVE, dose-response Fig. 4 f",[6]; substrate Phe 0.1 μM,0.01529
same,"AVE, dose-response Fig. 4 f",[6]; substrate Phe 1 μM,-0.009047
same,"AVE, dose-response Fig. 4 f",[6]; substrate Phe 10 μM,0.009571
same,"AVE, dose-response Fig. 4 f",[6]; substrate Phe 50 μM,0.1062
same,"AVE, dose-response Fig. 4 f",[6]; substrate Phe 100 μM,0.2173
same,"AVE, dose-response Fig. 4 f",[6]; substrate Phe 500 μM,0.5047
same,"AVE, dose-response Fig. 4 f",[6]; substrate Phe 1000 μM,0.643
same,"AVE, dose-response Fig. 4 f",[6]; substrate Phe 5000 μM,0.6763
same,"AVE, dose-response Fig. 4 f",[6]; substrate Phe 10000 μM,0.7368
same,"AVE, dose-response Fig. 4 d",[6]; substrate Phe 0.01 μM,0.02814
same,"AVE, dose-response Fig. 4 d",[6]; substrate Phe 0.1 μM,0.03519
same,"AVE, dose-response Fig. 4 d",[6]; substrate Phe 1 μM,0.04924
same,"AVE, dose-response Fig. 4 d",[6]; substrate Phe 5 μM,0.06403
same,"AVE, dose-response Fig. 4 d",[6]; substrate Phe 10 μM,0.08037
same,"AVE, dose-response Fig. 4 d",[6]; substrate Phe 50 μM,0.1108
same,"AVE, dose-response Fig. 4 d",[6]; substrate Phe 100 μM,0.1713
same,"AVE, dose-response Fig. 4 d",[6]; substrate Phe 200 μM,0.2373
same,"AVE, dose-response Fig. 4 d",[6]; substrate Phe 500 μM,0.3495
same,"AVE, dose-response Fig. 4 d",[6]; substrate Phe 750 μM,0.3806
same,"AVE, dose-response Fig. 4 d",[6]; substrate Phe 1000 μM,0.3842
same,"fluorescence response of GECFINDER, AVE of 3 repeats","[6]; Supplementary Fig. 3 a, Phe 0.001 μM",0
same,"fluorescence response of GECFINDER, AVE of 3 repeats","[6]; Supplementary Fig. 3 a, Phe 0.005 μM",0.03394
same,"fluorescence response of GECFINDER, AVE of 3 repeats","[6]; Supplementary Fig. 3 a, Phe 0.01 μM",0.09128
same,"fluorescence response of GECFINDER, AVE of 3 repeats","[6]; Supplementary Fig. 3 a, Phe 0.1 μM",0.1211
same,"fluorescence response of GECFINDER, AVE of 3 repeats","[6]; Supplementary Fig. 3 a, Phe 1 μM",0.1406
same,"fluorescence response of GECFINDER, AVE of 3 repeats","[6]; Supplementary Fig. 3 a, Phe 10 μM",0.1472
same,"fluorescence response of GECFINDER, AVE of 3 repeats","[6]; Supplementary Fig. 3 a, Phe 50 μM",0.1578
same,"fluorescence response of GECFINDER, AVE of 3 repeats","[6]; Supplementary Fig. 3 a, Phe 100 μM",0.198
same,"fluorescence response of GECFINDER, AVE of 3 repeats","[6]; Supplementary Fig. 3 a, Phe 500 μM",0.3919
same,"fluorescence response of GECFINDER, AVE of 3 repeats","[6]; Supplementary Fig. 3 a, Phe 1000 μM",0.5221
same,"fluorescence response of GECFINDER, AVE of 3 repeats","[6]; Supplementary Fig. 3 a, Phe 5000 μM",0.7757
same,"fluorescence response of GECFINDER, AVE of 3 repeats","[6]; Supplementary Fig. 3 a, Phe 10000 μM",0.7576
same,"fluorescence response of GECFINDER, AVE of 3 repeats","[6]; Supplementary Fig. 3 b, Phe 0.001 μM",-4.337e-17
same,"fluorescence response of GECFINDER, AVE of 3 repeats","[6]; Supplementary Fig. 3 b, Phe 0.005 μM",0.01069
same,"fluorescence response of GECFINDER, AVE of 3 repeats","[6]; Supplementary Fig. 3 b, Phe 0.01 μM",-0.003867
same,"fluorescence response of GECFINDER, AVE of 3 repeats","[6]; Supplementary Fig. 3 b, Phe 0.1 μM",0.001408
same,"fluorescence response of GECFINDER, AVE of 3 repeats","[6]; Supplementary Fig. 3 b, Phe 1 μM",0.04065
same,"fluorescence response of GECFINDER, AVE of 3 repeats","[6]; Supplementary Fig. 3 b, Phe 10 μM",0.112
same,"fluorescence response of GECFINDER, AVE of 3 repeats","[6]; Supplementary Fig. 3 b, Phe 50 μM",0.2916
same,"fluorescence response of GECFINDER, AVE of 3 repeats","[6]; Supplementary Fig. 3 b, Phe 100 μM",0.4046
same,"fluorescence response of GECFINDER, AVE of 3 repeats","[6]; Supplementary Fig. 3 b, Phe 500 μM",0.8587
same,"fluorescence response of GECFINDER, AVE of 3 repeats","[6]; Supplementary Fig. 3 b, Phe 1000 μM",1.065
same,"fluorescence response of GECFINDER, AVE of 3 repeats","[6]; Supplementary Fig. 3 b, Phe 5000 μM",1.452
same,"fluorescence response of GECFINDER, AVE of 3 repeats","[6]; Supplementary Fig. 3 b, Phe 10000 μM",1.455

# From publication PMC10590383, “Repurposing conformational changes in ANL superfamily enzymes to rapidly generate biosensors for organic and amino acids” (Nature Communications, 2023)
